Source: ChEMBL document CHEMBL1155397, “Synthesis of amino acid conjugates to 2-imino-3-methylene-5-carboxypyrrolidine and 2-imino-3-methylene-6-carboxypiperidine” (2010)

Legend:
Assay type in all cases: functional
Details in all cases: read-out: IZ
Erwinia amylovora [1] = assay: Antibacterial activity against Erwinia amylovora at 1 ug after 12 hrs by agar diffusion assay
Erwinia amylovora [2] = assay: Antibacterial activity against Erwinia amylovora at 0.1 ug after 12 hrs by agar diffusion assay
Erwinia amylovora [3] = assay: Antibacterial activity against Erwinia amylovora at 10 ug after 12 hrs by agar diffusion assay
Erwinia amylovora [4] = assay: Antibacterial activity against Erwinia amylovora at 100 ug after 12 hrs by agar diffusion assay

SMILES	zone of inhibition at 1 µg/disc (Erwinia amylovora [1]) [mm]	zone of inhibition at 0.1 µg/disc (Erwinia amylovora [2]) [mm]	zone of inhibition at 10 µg/disc (Erwinia amylovora [3]) [mm]	zone of inhibition at 100 µg/disc (Erwinia amylovora [4]) [mm]
C=C1C[C@@H](C(=O)N[C@H](C(=O)O)C(C)C)NC1=N	19	10	–	–
C=C1C[C@H](C(=O)N[C@H](C(=O)O)C(C)C)NC1=N	6	–	10	19
C=C1C[C@@H](C(=O)N[C@@H](C(=O)O)C(C)C)NC1=N	–	–	–	10
